These results are taken from patent US20230312700A1, “TREATMENT OF A DISEASE OF THE GASTROINTESTINAL TRACT WITH A TNF INHIBITOR” (Progenity, Inc., priority 2018, published 2023).

This series in a line: Example 10: tacrolimus tissue, plasma, rectal and GI content pharmacokinetics, oral vs intra-cecal ingestible device. Also on record: species or system Yorkshire-Cross farm swine. As to conditions: female, Yorkshire-Cross, swine, in vivo, 0.09 mg/kg. On the procedure: The primary objective of this study was to compare the tissue, plasma, rectal sample, and GI content pharmacokinetics of tacrolimus through oral versus intra-cecal ingestible device delivery in normal Yorkshire-Cross farm swine.
No further randomization procedure was employed.
Animals in Group 1 received an ingestible device containing 0.8 mL of vehicle solution (80% alcohol, 20% HCO-60). Animals in Group 2 received orally […] liquid formulation of tacrolimus at 4 mg/0.8 mL per animal (Prograf: 5 mg/mL). Animals in Group 3 received intra-cecally an ingestible device containing tacrolimus at 1 mg in 0.8 mL per ingestible device. […]
Approximately 200-400 mg of rectal content were collected, if available, with a fecal swab (Copan Diagnostics Nylon Flocked Dry Swabs, 502CS01). The fecal swab was pre-weighed and weighed after collection in the collection tube (Sterile Tube and Cap No Media, PFPM913S), and the sample weight was recorded. […]
For tissue necropsy, small intestine fluid and cecal fluid were collected separately from all the animals into two separate square plastic bottles, and stored at −20° C. The length and diameter of the cecum and the colon was measured from one animal in each group and recorded for reference. […] All samples were weighed, and the tissue sample weights were recorded. […]

Turning to `C=CC[C@@H]1/C=C(\C)C[C@H](C)C[C@H](OC)[C@H]2O[C@@](O)(C(=O)C(=O)N3CCCC[C@H]3C(=O)O[C@H](/C(C)=C/[C@@H]3CC[C@@H](O)[C@H](OC)C3)[C@H](C)[C@@H](O)CC1=O)[C@H](C)C[C@@H]2OC` [tacrolimus], the concentration at 12 h stood at 4.38 ± 0.516 ng/mL.
